In ChEMBL document CHEMBL5729370 (2022) one finds IC50 data, which are given here for five molecules.

This test has as its target T1, Mitogen-activated protein kinase kinase kinase 5 (Homo sapiens, UniProt Q99683).
T1 sequence (Q99683 whole entry): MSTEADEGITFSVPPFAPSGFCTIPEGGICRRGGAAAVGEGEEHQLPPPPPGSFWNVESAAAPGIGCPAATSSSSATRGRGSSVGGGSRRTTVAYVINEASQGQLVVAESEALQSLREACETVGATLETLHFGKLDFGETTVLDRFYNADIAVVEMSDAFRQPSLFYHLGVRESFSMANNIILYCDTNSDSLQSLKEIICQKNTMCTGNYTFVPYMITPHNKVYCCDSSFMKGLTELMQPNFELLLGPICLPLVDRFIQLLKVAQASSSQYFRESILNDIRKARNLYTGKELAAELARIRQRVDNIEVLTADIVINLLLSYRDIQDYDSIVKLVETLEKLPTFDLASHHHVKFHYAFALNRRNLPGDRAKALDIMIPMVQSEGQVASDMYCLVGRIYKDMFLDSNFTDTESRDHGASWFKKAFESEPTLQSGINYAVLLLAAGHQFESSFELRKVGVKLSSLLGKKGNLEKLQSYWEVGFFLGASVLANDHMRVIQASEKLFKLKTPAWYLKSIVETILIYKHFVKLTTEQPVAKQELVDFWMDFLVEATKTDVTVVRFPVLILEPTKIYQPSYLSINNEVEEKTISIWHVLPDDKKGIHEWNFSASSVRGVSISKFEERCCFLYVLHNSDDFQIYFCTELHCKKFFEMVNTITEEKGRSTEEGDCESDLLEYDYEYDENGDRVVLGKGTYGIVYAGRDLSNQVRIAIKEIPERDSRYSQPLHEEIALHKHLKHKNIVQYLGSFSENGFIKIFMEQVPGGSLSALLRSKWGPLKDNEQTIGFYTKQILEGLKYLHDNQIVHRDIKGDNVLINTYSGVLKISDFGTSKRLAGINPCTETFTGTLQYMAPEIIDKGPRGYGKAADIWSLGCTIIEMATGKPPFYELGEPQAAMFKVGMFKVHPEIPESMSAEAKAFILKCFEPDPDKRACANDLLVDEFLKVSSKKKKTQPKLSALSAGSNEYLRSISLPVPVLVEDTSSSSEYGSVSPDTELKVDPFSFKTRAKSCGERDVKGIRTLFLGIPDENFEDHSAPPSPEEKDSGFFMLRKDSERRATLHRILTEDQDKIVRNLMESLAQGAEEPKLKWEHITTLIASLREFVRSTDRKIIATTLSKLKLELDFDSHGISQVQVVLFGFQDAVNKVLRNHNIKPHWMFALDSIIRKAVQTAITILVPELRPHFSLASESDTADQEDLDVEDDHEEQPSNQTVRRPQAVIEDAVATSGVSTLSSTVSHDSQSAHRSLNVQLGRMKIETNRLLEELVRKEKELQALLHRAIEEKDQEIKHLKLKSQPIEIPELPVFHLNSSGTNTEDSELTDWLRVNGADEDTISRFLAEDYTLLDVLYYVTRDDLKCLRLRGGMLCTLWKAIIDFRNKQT
Briefly: HTRF KinEASE Assay: ASK1 was purchased from Thermofisher (Catalogue #PV4011), ATP was purchased from Sigma (Catalogue #A7699), HTRF® KinEASE™ Assay System was obtained from Cisbio (Bedford, Mass.). ½ Area plate was purchased from Perkin Elmer (Catalogue ##6005560). HTRF® KinEASE™-STK is a generic method for measuring serine/threonine kinase activities using a time-resolved fluorescence resonance energy transfer (TR-FRET) immunoassay. The IC50 value for each compound was determined in the presence of compound (various concentration from 0 to 10 μM) and a fixed amount of ATP and peptide substrates. The test compound, 1 μM STK3 peptide substrate, and 5 μM of ASK1 kinase are incubated with kinase reaction buffer containing 50 mM HEPES Ph 7.5, 0.01% BRIJ-35, 10 mM MgCl2, and 1 mM EGTA for 30 minutes. 100 μM ATP is added to start kinase reaction and incubated for 3 hours. The STK3-antibody labeled with Eu3+-Cryptate and 125 nM streptavidin-XL665 are mixed in a single addition with stop reagents provided by the Cisbio kit used to stop the kinase reaction. Fluorescence is detected using an Envision Multilabeled 2014 reader from PerkinElmer. The Fluorescence is measured at 615 nm (Cryptate) and 665 nm (XL665) and a ratio of 665 nm/615 nm is calculated for each well. The resulting TR-FRET is proportional to the phosphorylation level. Staurosporine was used as the positive control. IC50 was determined by Xlfit 5.3. The class given is single protein.

A word on the IC50: it is the midpoint of a concentration-inhibition curve.

As to `CCOC(=O)N1CCc2cnc(C(=O)Nc3cccc(-c4nnc5n4CCCC5)n3)cc2C1`, the IC50 is more than 1000 nM.
Turning to `CCOC(=O)N1CCc2cc(OC)c(C(=O)Nc3cccc(-c4nnc5n4[C@H](C)CC5)n3)cc2C1`, the IC50 is less than 1.25 nM.
Turning to `CCOC(=O)N1CCc2cc(F)c(C(=O)Nc3cccc(-c4nnc5n4CCCC5)n3)cc2C1`, the IC50 was more than 1000 nM.
The result for `CCOC(=O)N1CCc2cc(OC)c(C(=O)Nc3cccc(-c4nnc5n4CCCC5)n3)cc2C1` reads 10 to 100 nM; that for `CCOC(=O)N1CCc2cc(OC)c(C(=O)Nc3cccc(-c4nnc5n4C(C)(C)CC5)n3)cc2C1`, less than 1.25 nM.
